Values of other authors in US20190298799A1, “CONTROLLED-RELEASE APOPTOSIS MODULATING COMPOSITIONS AND METHODS FOR THE TREATMENT OF OTIC DISORDERS” (Otonomy, Inc., priority 2008, published 2019).

Experiments:
[1] = system: neurons and otic hair cells
cochlear culture = settings: culture first treated with the inhibitor, then neomycin and/or cisplatin

Row | SMILES | protection from aminoglycoside ototoxicity [1] | apoptosis in cochlear culture (cochlear culture)
1 | CC(=O)N[C@@H](CC(C)C)C(=O)N[C@@H](CC(C)C)C(=O)N[C@H](C=O)CCCNC(=N)N [Leupeptine, leupeptine] | protects neurons and otic hair cells from aminoglycoside ototoxicity | –
2 | C[S+]([O-])c1ccc(-c2nc(-c3ccc(F)cc3)c(-c3ccncc3)[nH]2)cc1 (centres unmarked) [SB-203580, 4-(4-Fluorophenyl)-2-(4-methylsulfinylphenyl)-5-(4-pyridyl) 1H-imidazole] | – | apoptosis is decreased
